In publication PMC9241976 (Chemical Science, 2022):

Test system: MCF-7 cells
Experiment: Sulforhodamine B assay, cytostatic and cytotoxic activity
Type: cell-based, human
Details: LC50 versus GI50 of the same compound

In the case of polytheonamide B [Compound 5], the “difference between GI50 and LC50” value is reported as 19 fold.
